Laboratory results reported in ChEMBL document CHEMBL1156193, “Discovery of a long-acting, peripherally selective inhibitor of catechol-O-methyltransferase” (2010).
Active and inactive are the calls of the source. No cut-off for these calls is given here.

What was measured:
[1] = Cytotoxicity against mouse Neuro2a cells assessed as cell viability at 30 uM after 24 hrs; assay type: functional; conditions: N2a, read-out: Activity
[2] = test system: Rattus norvegicus; experiment: Inhibition of COMT in po dosed Wistar rat liver homogenates assessed as metanephrine formation measured up to 3 hrs relative to control; assay type: functional
[3] = test system: Rattus norvegicus; experiment: Inhibition of COMT in Wistar rat liver homogenates assessed as metanephrine formation at 3 mg/kg, po measured after 1 hr; assay type: functional, organism-based; set-up: dose 3 mg/kg
[4] = test system: Rattus norvegicus; experiment: Inhibition of COMT in Wistar rat brain homogenates assessed as metanephrine formation at 3 mg/kg, po measured after 1 hr; assay type: functional, organism-based; set-up: dose 3 mg/kg
[5] = test system: Rattus norvegicus; experiment: Inhibition of COMT in Wistar rat liver homogenates assessed as metanephrine formation at 3 mg/kg, po measured after 3 hrs; assay type: functional, organism-based; set-up: dose 3 mg/kg
[6] = test system: Rattus norvegicus; experiment: Inhibition of COMT in Wistar rat brain homogenates assessed as metanephrine formation at 3 mg/kg, po measured after 3 hrs; assay type: functional, organism-based; set-up: dose 3 mg/kg
[7] = test system: Rattus norvegicus; experiment: Inhibition of central COMT in Wistar rat liver homogenates assessed as metanephrine formation at 3 mg/kg, po measured after 9 hrs; assay type: functional; conditions: Brain, in the assay text read “rat brain homogenates” for “rat liver homogenates”
[8] = test system: Rattus norvegicus; experiment: Inhibition of central COMT in Wistar rat brain homogenates assessed as metanephrine formation at 3 mg/kg, po measured after 9 hrs; assay type: functional
[9] = test system: Rattus norvegicus; experiment: Inhibition of COMT in Wistar rat plasma assessed as increase L-DOPA level at 3 mg/kg, po co-administered with L-dopa and benserazide measured after 2 hrs by HPLC analysis; assay type: functional
[10] = test system: Rattus norvegicus; experiment: Inhibition of COMT in Wistar rat plasma assessed as increase L-DOPA level at 3 mg/kg, po co-administered with L-dopa and benserazide measured after 7 hrs by HPLC analysis; assay type: functional
[11] = test system: Rattus norvegicus; experiment: Inhibition of COMT in Wistar rat plasma assessed as increase L-DOPA level at 3 mg/kg, po co-administered with L-dopa and benserazide measured after 24 hrs by HPLC analysis; assay type: functional, organism-based; set-up: dose 3 mg/kg
[12] = test system: Rattus norvegicus; experiment: Inhibition of COMT in Wistar rat plasma assessed as decrease in 3-O-methyl-L-Dopa level at 3 mg/kg, po co-administered with L-dopa and benserazide measured after 2 hrs by HPLC analysis; assay type: functional, organism-based; set-up: dose 3 mg/kg
[13] = test system: Rattus norvegicus; experiment: Inhibition of COMT in Wistar rat plasma assessed as decrease in 3-O-methyl-L-Dopa level at 3 mg/kg, po co-administered with L-dopa and benserazide measured after 7 hrs by HPLC analysis; assay type: functional, organism-based; set-up: dose 3 mg/kg
[14] = species on record: Rattus norvegicus; conditions: Wistar, Liver, 3 mg/kg
[15] = test system: Rattus norvegicus; experiment: Inhibition of peripheral COMT in Wistar rat liver homogenates assessed as metanephrine formation at 3 mg/kg, po measured after 9 hrs
[16] = test system: Rattus norvegicus; experiment: Inhibition of COMT in Wistar rat liver homogenates assessed as metanephrine formation at 3 mg/kg, po measured after 3 hrs relative to control; values are per cent of control
[17] = test system: Mus musculus; experiment: Inhibition of COMT in NMRI mouse liver homogenates assessed as metanephrine formation at 3 mg/kg, po measured after 3 hrs relative to control; values are per cent of control
[18] = test system: Mus musculus; experiment: Inhibition of COMT in NMRI mouse liver homogenates assessed as metanephrine formation at 30 mg/kg, po measured after 6 hrs relative to control; values are per cent of control
[19] = test system: Rattus norvegicus; experiment: Inhibition of central COMT in Wistar rat brain homogenates assessed as metanephrine formation at 3 mg/kg, po measured up to 24 hrs; assay type: functional, organism-based; set-up: dose 3 mg/kg
[20] = test system: Rattus norvegicus; experiment: Inhibition of peripheral COMT in Wistar rat liver homogenates assessed as metanephrine formation at 3 mg/kg, po measured after 24 hrs; assay type: functional
[21] = test system: Rattus norvegicus; experiment: Inhibition of peripheral COMT in Wistar rat brain homogenates assessed as metanephrine formation at 3 mg/kg, po measured after 24 hrs; assay type: functional; conditions: Liver, in the assay text read “rat liver homogenates” for “rat brain homogenates”
[22] = test system: Rattus norvegicus; experiment: Inhibition of COMT in Wistar rat plasma assessed as decrease in 3-O-methyl-L-Dopa level at 3 mg/kg, po co-administered with L-dopa and benserazide measured after 24 hrs by HPLC analysis; assay type: functional, organism-based; set-up: dose 3 mg/kg
[23] = test system: Rattus norvegicus; experiment: Inhibition of COMT in Wistar rat plasma assessed as decrease in 3-O-methyl-L-Dopa level at 3 mg/kg, po co-administered with L-dopa and benserazide measured after 2 hrs by HPLC analysis relative to control; assay type: functional
[24] = test system: Rattus norvegicus; experiment: Inhibition of central COMT in Wistar rat brain homogenates assessed as metanephrine formation at 3 mg/kg, po measured up to 24 hrs

Q: Which viability at 30 µM [1] does the source give for `Cc1ccc(C(=O)c2cc(O)c(O)c([N+](=O)[O-])c2)cc1` [TOLCAPONE] here?
A: 27.2%

Q: What about the ED50 [2] of the same compound?
A: 1.77 mg/kg

Q: And the Activity [3]?
A: Active

Q: What about the inhibition [4] of the same compound?
A: Active

Q: And the inhibition [5]?
A: Active

Q: And the inhibition [6]?
A: Active

Q: What about the inhibition in vivo at 3 mg/kg [7] of the same compound?
A: 50%

Q: What about the inhibition in vivo at 3 mg/kg [8] of the same compound?
A: 50%

Q: What about the “fold change (FC)” value [9] of the same compound?
A: 3

Q: What about the fold change (FC) [10] of the same compound?
A: 2

Q: What about the inhibition [11] of the same compound?
A: inactive

Q: What about the inhibition [12] of the same compound?
A: Active

Q: What about the inhibition [13] of the same compound?
A: Active

Q: What about the inhibition [14] of the same compound?
A: inactive

Q: What about the inhibition [15] of the same compound?
A: inactive

Q: What about the level, % of control at 3 mg/kg [16] of the same compound?
A: 23.8%

Q: What about the level, % of control at 3 mg/kg [17] of the same compound?
A: 15.1%

Q: What about the level, % of control at 30 mg/kg [18] of the same compound?
A: 6.8%

Q: For `Cc1c(Cl)c(C)[n+]([O-])c(Cl)c1-c1noc(-c2cc(O)c(O)c([N+](=O)[O-])c2)n1` [OPICAPONE], which viability at 30 µM [1] is on record?
A: 86.6%

Q: What about the ED50 [2] of the same compound?
A: 1.05 mg/kg

Q: What about the inhibition [3] of the same compound?
A: Active

Q: And the inhibition [5]?
A: Active

Q: And the inhibition [19]?
A: inactive

Q: What about the inhibition in vivo at 3 mg/kg [20] of the same compound?
A: 50%

Q: And the inhibition in vivo at 3 mg/kg [21]?
A: 50%

Q: What about the “fold change (FC)” value [9] of the same compound?
A: 2

Q: And the inhibition [22]?
A: Active

Q: And the inhibition in vivo at 3 mg/kg [23]?
A: 50%

Q: What about the inhibition [24] of the same compound?
A: inactive

Q: And the level, % of control at 3 mg/kg [16]?
A: 0.7%
